Inconclusive results and toxic doses are left out.
Test system: L1210 leukemia ip in BDF1 mice, survival T/C
Experiment: NCI In Vivo Anticancer Drug Screen. Data for tumor model L1210 Leukemia (intraperitoneal) in B6D2F1 (BDF1) mice
Details: endpoint: mean survival time, higher = longer survival
Outline: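 Ratio derived from survival: compound-dosed mice over vehicle-dosed mice, all bearing a transplantable tumor.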

[1] = dose: 100.0 mg/kg/injection, schedule: Q01DX009 (ip), vehicle: saline with Tween-80
[2] = dose: 100.0 mg/kg/injection, schedule: Q04DX003 (ip), vehicle: saline with Tween-80
[3] = dose: 200.0 mg/kg/injection, schedule: Q01DX009 (ip), vehicle: saline with Tween-80
[4] = dose: 200.0 mg/kg/injection, schedule: Q04DX003 (ip), vehicle: saline with Tween-80
[5] = dose: 100.0 mg/kg/injection, schedule: Q01DX009 (ip), vehicle: Klucel (hydroxypropylcellulose) (HPC)
[6] = dose: 200.0 mg/kg/injection, schedule: Q01DX009 (ip), vehicle: Klucel (hydroxypropylcellulose) (HPC)
[7] = dose: 400.0 mg/kg/injection, schedule: Q01DX009 (ip), vehicle: Klucel (hydroxypropylcellulose) (HPC)
[8] = dose: 100.0 mg/kg/injection, schedule: Q04DX003 (ip), vehicle: Klucel (hydroxypropylcellulose) (HPC)
[9] = dose: 200.0 mg/kg/injection, schedule: Q04DX003 (ip), vehicle: Klucel (hydroxypropylcellulose) (HPC)
[10] = dose: 100.0 mg/kg/injection, schedule: Q04DX002 (ip), vehicle: Klucel (hydroxypropylcellulose) (HPC)
[11] = dose: 200.0 mg/kg/injection, schedule: Q04DX002 (ip), vehicle: Klucel (hydroxypropylcellulose) (HPC)
[12] = dose: 400.0 mg/kg/injection, schedule: Q04DX002 (ip), vehicle: Klucel (hydroxypropylcellulose) (HPC)
[13] = dose: 100.0 mg/kg/injection, schedule: Q04DX002 (ip), vehicle: saline
[14] = dose: 200.0 mg/kg/injection, schedule: Q04DX002 (ip), vehicle: saline
[15] = dose: 400.0 mg/kg/injection, schedule: Q04DX002 (ip), vehicle: saline

O=C(O)c1[nH]c(=O)[nH]c(=O)c1F.[Ga]
T/C (dose: 50.0 mg/kg/injection, schedule: Q01DX009 (ip), vehicle: saline with Tween-80): 109 % of control | T/C [1]: 91 % of control | T/C [2]: 101 % of control | T/C (dose: 177.0 mg/kg/injection, schedule: Q01DX001 (ip), vehicle: saline with Tween-80): 160 % of control | T/C (dose: 200.0 mg/kg/injection, schedule: Q01DX001 (ip), vehicle: saline with Tween-80): 174 % of control | T/C [3]: 99 % of control | T/C [4]: 102 % of control | T/C (dose: 400.0 mg/kg/injection, schedule: Q01DX001 (ip), vehicle: saline with Tween-80): 197 % of control

COC(=O)C1=CC=CC1
T/C (dose: 100.0 mg/kg/injection, schedule: Q01DX005 (ip), vehicle: Klucel (hydroxypropylcellulose) (HPC)): 103 % of control | T/C [5]: 104 % of control | T/C (dose: 200.0 mg/kg/injection, schedule: Q01DX005 (ip), vehicle: Klucel (hydroxypropylcellulose) (HPC)): 98 % of control | T/C [6]: 104 % of control | T/C (dose: 400.0 mg/kg/injection, schedule: Q01DX005 (ip), vehicle: Klucel (hydroxypropylcellulose) (HPC)): 95 % of control | T/C [7]: 93 % of control

COc1nc(N/N=C/c2ccccc2O)ccc1[N+](=O)[O-]
T/C [8]: 93 % of control | T/C [9]: 93 % of control | T/C (dose: 400.0 mg/kg/injection, schedule: Q04DX003 (ip), vehicle: Klucel (hydroxypropylcellulose) (HPC)): 95 % of control

O=C(Nc1ccccc1Cl)Oc1ccc(Cl)cc1Cc1ccccc1
T/C [1]: 91 % of control | T/C (dose: 100.0 mg/kg/injection, schedule: Q04DX002 (ip), vehicle: saline with Tween-80): 100 % of control | T/C [3]: 90 % of control | T/C (dose: 200.0 mg/kg/injection, schedule: Q04DX002 (ip), vehicle: saline with Tween-80): 91 % of control | T/C (dose: 400.0 mg/kg/injection, schedule: Q04DX002 (ip), vehicle: saline with Tween-80): 91 % of control

CC1(C(=O)O)CC1(C)C(=O)O (centres undefined)
T/C [2]: 103 % of control | T/C [4]: 96 % of control | T/C (dose: 400.0 mg/kg/injection, schedule: Q04DX003 (ip), vehicle: saline with Tween-80): 92 % of control

COc1cc(/C=N/NC(=O)Cc2cccc3ccccc23)ccc1O
T/C [5]: 109 % of control | T/C [10]: 107 % of control | T/C [6]: 93 % of control | T/C [11]: 104 % of control | T/C [7]: 98 % of control | T/C [12]: 96 % of control

S=C(NCc1ccccc1)C(=S)NCc1ccccc1
T/C [8]: 105 % of control | T/C [9]: 98 % of control

CCCCCOC(=O)Nc1ccc(OCC)cc1
T/C [10]: 105 % of control | T/C [11]: 101 % of control | T/C [12]: 105 % of control

C[C@@H]1C[C@@]2(C)[C@@H](CC[C@@H]3[C@@H]2CC[C@]2(C)[C@@H](O)CC[C@@H]32)C[C@@H]1O
T/C (dose: 62.5 mg/kg/injection, schedule: Q01DX015 (sc), vehicle: steriod suspending solution): 100 % of control | T/C (dose: 125.0 mg/kg/injection, schedule: Q01DX015 (sc), vehicle: steriod suspending solution): 94 % of control | T/C (dose: 250.0 mg/kg/injection, schedule: Q01DX015 (sc), vehicle: steriod suspending solution): 102 % of control | T/C (dose: 500.0 mg/kg/injection, schedule: Q01DX015 (sc), vehicle: steriod suspending solution): 94 % of control

CC1C(=O)OC2C1CCC1(C)C=CC(=O)C(C)C21 (centres undefined)
T/C (dose: 75.0 mg/kg/injection, schedule: Q01DX001 (ip), vehicle: saline): 102 % of control | T/C (dose: 150.0 mg/kg/injection, schedule: Q01DX001 (ip), vehicle: saline): 103 % of control

CCCCCCCCCCCCC(O)(CCC)C(=O)O (centres undefined)
T/C [10]: 102 % of control | T/C [11]: 98 % of control | T/C [12]: 98 % of control

CCCOCCOCCOC(C)Oc1cc(OC)ccc1OC (centres undefined)
T/C [13]: 93 % of control | T/C [14]: 111 % of control | T/C [15]: 96 % of control

CCCC(=O)N1C(C)CCCC1C (centres undefined)
T/C [13]: 117 % of control | T/C [14]: 101 % of control | T/C [15]: 93 % of control

CN1c2ccc(Br)c[c]2[Sn]2([c]3cc(Br)ccc31)[c]1cc(Br)ccc1N(C)c1ccc(Br)c[c]12
T/C (dose: 100.0 mg/kg/injection, schedule: Q01DX001 (ip), vehicle: steriod suspending solution): 104 % of control | T/C (dose: 200.0 mg/kg/injection, schedule: Q01DX001 (ip), vehicle: steriod suspending solution): 107 % of control | T/C (dose: 400.0 mg/kg/injection, schedule: Q01DX001 (ip), vehicle: steriod suspending solution): 109 % of control
